Source: US8759051B2, “Control of contaminant microorganisms in fermentation processes with peroxygen-releasing compounds” (E I du Pont de Nemours and Company, priority 2010, dated 2014)
Several values for one entry are separate records, joined by “and”; a condition that tells them apart may be missing. Equal values may be shown once. Read-outs that look alike come from different tables or passages of the source. Each block holds one compound with its values, some of them ahead of it.

Key:
[1] = Stability of peroxygen-releasing compounds during storage at 40° C., iodometric titration of hydrogen peroxide (Example 4); type: physicochemical
Experimental: A dry oven was used to store samples of the peroxygen-releasing compounds at 40° C. The oven was allowed to equilibrate overnight. Two-gram duplicate samples of each of the following peroxygen-releasing compounds were dispensed into aluminum weighing dishes: sodium percarbonate (Alfa Aesar, Ward Hill, Mass.), sodium percarbonate FB 400 (Solvay Chemicals, Inc., Houston, Tex.), sodium percarbonate FB […] (Solvay Chemicals, Inc.), calcium peroxide (Sigma-Aldrich Co., St. […] After six days, samples were analyzed for levels of hydrogen peroxide using standard iodometric titration.

[2] = system: lactic acid bacteria (LAB); test: Inactivation of LAB in molasses at pH 4.2 and 5.4 (Examples 2 and 3); type: cell-based
Experimental: Molasses (B&G Foods, Inc., Roseland, N.J.) was diluted 1 to 3.1 with water and sterilized as in Example 1. The prepared molasses was then divided into two lots and pH-adjusted using sulfuric acid to approximately pH 4.2 and 5.4, respectively. Cultures of LAB were prepared as in Example 1 and inoculated into the molasses to give approximately 1×10^6 CFU/ml. Sodium percarbonate (Alfa Aesar, Ward Hill, Mass.) was added to give 250, 500, and 750 ppm. […] Levels of LAB were enumerated by dilution and plating onto the surface of MRS agar followed by incubation at 32° C. LAB were enumerated at approximately 2 and 24 hours after the addition of sodium percarbonate.
Molasses was prepared as above and adjusted to pH 4.2 and 5.4 using sulfuric acid. Cultures of lactic acid bacteria were prepared as indicated in Example 1 and inoculated into the molasses to give approximately 10E6 CFU/ml. Levels of bacteria were confirmed by plating serial dilutions of the inoculated molasses onto the surface of MRS agar plates as in Example 1. Calcium peroxide was added at the levels indicated. Bacterial levels were enumerated at 2 and 24 hours following addition as described above.

[3] = system: lactic acid bacteria (LAB); test: Inactivation of LAB in dilute molasses at pH 5.0 in the presence of yeast Ethanol Red (Example 5); type: cell-based
Experimental: Cultures of lactic acid bacteria (LAB) were prepared as in Example 1 above. Molasses was diluted 1:3.1 with water as in previous examples. The fermenting yeast Ethanol Red was cultured as in example 1. Populations of lactic acid bacteria and yeasts were determined by dilution plating on MRS agar and YPD agar, respectively. Overnight cultures of LAB were mixed to prepare a bacterial cocktail and inoculated into molasses (diluted 1:3.1 with water) adjusted to pH 5.0 to give approximately 6.11 Log CFU/ml. Cultures of yeasts were added to each tube at a concentration of approximately 6.80 Log CFU/ml. […] The amount of UHP added was 1450 ppm. The amount of percarbonate added was 1812 ppm. Tubes were then incubated at 32° C. with agitation. […] Amphotericin inhibits the growth of yeast, facilitating enumeration of bacteria only.

[4] = before storage, duplicate samples
[5] = storage at 40° C. in dry oven, day 6, duplicate samples
[6] = storage at 40° C. in dry oven, day 14, duplicate samples

% Remaining H2O2 Day 0 [1]: 100%
% Remaining H2O2 Day 6 [1]: 96%
% Remaining H2O2 Day 14 [1]: 96%
% H2O2 Day 0 [1, 4]: 23.81% and 23.66%
% H2O2 Day 6 [1, 5]: 22.80% and 22.74%
% H2O2 Day 14 [1, 6]: 22.80% and 22.67%
Compound: O=C([O-])[O-].O=C([O-])[O-].OO.OO.OO.[Na+].[Na+].[Na+].[Na+] [Sodium percarbonate (FB 400), sodium percarbonate]

% Remaining H2O2 Day 0 [1]: 100%
% Remaining H2O2 Day 6 [1]: 100%
% H2O2 Day 0 [1, 4]: 10.66% and 10.72%
% H2O2 Day 6 [1, 5]: 10.66% and 10.68%
% H2O2 Day 14 [1, 6]: 10.64% and 10.65%
Compound: [Mg+2].[O-][O-] [Magnesium peroxide, magnesium peroxide]

% Remaining H2O2 Day 0 [1]: 100%
% Remaining H2O2 Day 14 [1]: 96%
% H2O2 Day 0 [1, 4]: 26.34% and 26.25%
% H2O2 Day 6 [1, 5]: 25.37% and 25.45%
% H2O2 Day 14 [1, 6]: 25.35% and 25.27%
Compound: O=C([O-])[O-].O=C([O-])[O-].OO.OO.OO.[Na+].[Na+].[Na+].[Na+] [Sodium percarbonate (FB 400C), sodium percarbonate]

% Remaining H2O2 Day 0 [1]: 100%
% Remaining H2O2 Day 6 [1]: 97%
% Remaining H2O2 Day 14 [1]: 97%
% H2O2 Day 0 [1, 4]: 34.71% and 34.73%
% H2O2 Day 6 [1, 5]: 33.66% and 33.60%
% H2O2 Day 14 [1, 6]: 33.62% and 33.57%
relative hydrogen peroxide retained during storage ([1]; storage at 40° C., day not given): 97%
Compound: [Ca+2].[O-][O-] [Calcium peroxide, calcium peroxide]
CFU/ml LAB at hour indicated ([2]; molasses at pH 4.2, 197 ppm (69 ppm as H2O2), hour 2): 2.33 × 10^6 CFU/ml
CFU/ml LAB at hour indicated ([2]; molasses at pH 4.2, 197 ppm (69 ppm as H2O2), hour 24): 4.25 × 10^6 CFU/ml
CFU/ml LAB at hour indicated ([2]; molasses at pH 4.2, 393 ppm (138 ppm as H2O2), hour 2): 1.22 × 10^6 CFU/ml
CFU/ml LAB at hour indicated ([2]; molasses at pH 4.2, 393 ppm (138 ppm as H2O2), hour 24): 1.00 × 10^1 CFU/ml
CFU/ml LAB at hour indicated ([2]; molasses at pH 4.2, 590 ppm (207 ppm as H2O2), hour 2): 4.70 × 10^5 CFU/ml
CFU/ml LAB at hour indicated ([2]; molasses at pH 4.2, 590 ppm (207 ppm as H2O2), hour 24): <10 CFU/ml
CFU/ml LAB at hour indicated ([2]; molasses at pH 5.4, 197 ppm (69 ppm as H2O2), hour 2): 8.90 × 10^5 CFU/ml
CFU/ml LAB at hour indicated ([2]; molasses at pH 5.4, 197 ppm (69 ppm as H2O2), hour 24): 4.00 × 10^4 CFU/ml
CFU/ml LAB at hour indicated ([2]; molasses at pH 5.4, 393 ppm (138 ppm as H2O2), hour 2): 5.00 × 10^2 CFU/ml
CFU/ml LAB at hour indicated ([2]; molasses at pH 5.4, 393 ppm (138 ppm as H2O2), hour 24): below the detection limit
CFU/ml LAB at hour indicated ([2]; molasses at pH 5.4, 393 ppm (138 ppm as H2O2), hour 24, listed as Calcium percarbonate): <10 CFU/ml
CFU/ml LAB at hour indicated ([2]; molasses at pH 5.4, 590 ppm (207 ppm as H2O2), hour 2): 8.0×10^4 CFU/ml
CFU/ml LAB at hour indicated ([2]; molasses at pH 5.4, 590 ppm (207 ppm as H2O2), hour 2, listed as Calcium percarbonate): 8.00 × 10^4 CFU/ml
CFU/ml LAB at hour indicated ([2]; molasses at pH 5.4, 590 ppm (207 ppm as H2O2), hour 24): <10 CFU/ml
reductions in LAB ([2]; molasses pH 4.2, 197 ppm calcium peroxide, 2 hour): only slight reductions
reduction of LAB ([2]; molasses pH 4.2, 197 ppm calcium peroxide, 24 hours): approximately 1 log
reductions in LAB ([2]; molasses pH 4.2, 393 ppm calcium peroxide, 2 hour): only slight reductions
reduction of the population of LAB ([2]; molasses pH 4.2, 393 ppm calcium peroxide, 24 hours): more than 6 log units
reduction of the population of LAB ([2]; molasses pH 4.2, 590 ppm calcium peroxide, 2 hour): approximately 1 log
reduction of the population of LAB ([2]; molasses pH 4.2, 590 ppm calcium peroxide, 24 hours): more than 6 log units

Compound: NC(N)=O.OO [Urea hydrogen peroxide, urea hydrogen peroxide, reference compound]
% H2O2 Day 0 [1, 4]: 34.53% and 34.56%
% Remaining H2O2 Day 0 [1, 4]: 100%
% H2O2 Day 0 ([1]; before storage, duplicate samples, listed as urea hydrogen peroxide): approximately 35%
% H2O2 Day 6 [1, 5]: 0.24% and 0.25%
% Remaining H2O2 Day 6 [1, 5]: <1%
% H2O2 Day 6 ([1]; storage at 40° C. in dry oven, day 6, duplicate samples, listed as urea hydrogen peroxide): below 1%
% H2O2 Day 14 [1, 6]: 0.08%
% Remaining H2O2 Day 14 [1, 6]: 0%
stability during storage (in words) ([1]; storage at 40° C., 6 and 14 days): not stable during storage
reduction of the population of LAB ([3]; 500 ppm as H2O2, 2 hours of incubation at 32° C., in presence of yeast): 3 log units
Log CFU/mL of LAB at hour indicated ([3]; 500 ppm as H2O2, hour 2, molasses pH 5.0, yeast approx. 6.80 Log CFU/ml, 32° C.): 3.36 Log CFU/mL
